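1) Cells in 96-well plates. 2) Compound, 48 h, 5 concentrations. 3) Linear interpolation between surrounding doses. 4) Unreached endpoint = highest concentration. Here, GI50 denotes the concentration required for 50% inhibition of growth.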 The source made the active and inactive calls. Cut-off read from the data, not from the text of the source: active = GI50 up to about 1.1 µM and inactive = higher.
Legend:
Assay in all cases: NCI tumour cell line growth inhibition, 48 h
U-251 = test system: U-251
OVCAR-8 = test system: OVCAR-8
OVCAR-5 = test system: OVCAR-5
EKVX = test system: EKVX
ACHN = test system: ACHN
SF-539 = test system: SF-539
COLO 205 = test system: COLO 205
M14 = test system: M14
SK-MEL-2 = test system: SK-MEL-2
UACC-62 = test system: UACC-62
HOP-92 = test system: HOP-92
NCI/ADR-RES = test system: NCI/ADR-RES
SK-MEL-28 = test system: SK-MEL-28
SK-MEL-5 = test system: SK-MEL-5
SF-295 = test system: SF-295
HT-29 = test system: HT-29
UACC-257 = test system: UACC-257
KM12 = test system: KM12
DU-145 = test system: DU-145
MDA-MB-231 = test system: MDA-MB-231
CCRF-CEM = test system: CCRF-CEM
T47D = test system: T47D
Hs-578T = test system: Hs-578T
SN12C = test system: SN12C
HL-60 = test system: HL-60
MDA-MB-435 = test system: MDA-MB-435
SNB-75 = test system: SNB-75
HCT-116 = test system: HCT-116
HCC 2998 = test system: HCC 2998
LOX IMVI = test system: LOX IMVI
NCI-H522 = test system: NCI-H522
BT-549 = test system: BT-549
SF-268 = test system: SF-268
NCI-H23 = test system: NCI-H23
PC-3 = test system: PC-3
HCT-15 = test system: HCT-15
CAKI-1 = test system: CAKI-1
IGROV-1 = test system: IGROV-1
HOP-62 = test system: HOP-62
SW-620 = test system: SW-620
MCF7 = test system: MCF7
TK-10 = test system: TK-10
UO-31 = test system: UO-31
786-0 = test system: 786-0
NCI-H460 = test system: NCI-H460
SNB-19 = test system: SNB-19
OVCAR-4 = test system: OVCAR-4
SR = test system: SR
MOLT-4 = test system: MOLT-4
MDA-N = test system: MDA-N
OVCAR-3 = test system: OVCAR-3
A549 = test system: A549
RPMI-8226 = test system: RPMI-8226
Malme-3M = test system: Malme-3M
NCI-H226 = test system: NCI-H226
RXF 393 = test system: RXF 393
K562 = test system: K562
SK-OV-3 = test system: SK-OV-3

**Q.** `CCOC(=O)CCC(NC(=O)c1ccc(Oc2nc3ccccc3nc2C(=O)OCC)cc1)C(=O)OCC` (centres undefined) was tested. Which GI50 (U-251) did it give?
**A.** 71.3 µM (inactive)

**Q.** And the GI50 (OVCAR-8)?
**A.** 41.2 µM (inactive)

**Q.** And the GI50 (OVCAR-5)?
**A.** > 100 µM (inactive)

**Q.** What about the GI50 (EKVX) of the same compound?
**A.** > 100 µM (inactive)

**Q.** And the GI50 (ACHN)?
**A.** > 100 µM (inactive)

**Q.** What about the GI50 (SF-539) of the same compound?
**A.** > 100 µM (inactive)

**Q.** What about the GI50 (COLO 205) of the same compound?
**A.** > 100 µM (inactive)

**Q.** What about the GI50 (M14) of the same compound?
**A.** > 100 µM (inactive)

**Q.** What about the GI50 (SK-MEL-2) of the same compound?
**A.** > 100 µM (inactive)

**Q.** What about the GI50 (UACC-62) of the same compound?
**A.** > 100 µM (inactive)

**Q.** What about the GI50 (HOP-92) of the same compound?
**A.** > 100 µM (inactive)

**Q.** What about the GI50 (NCI/ADR-RES) of the same compound?
**A.** 55.1 µM (inactive)

**Q.** What about the GI50 (SK-MEL-28) of the same compound?
**A.** > 100 µM (inactive)

**Q.** And the GI50 (SK-MEL-5)?
**A.** > 100 µM (inactive)

**Q.** What about the GI50 (SF-295) of the same compound?
**A.** > 100 µM (inactive)

**Q.** And the GI50 (HT-29)?
**A.** > 100 µM (inactive)

**Q.** What about the GI50 (UACC-257) of the same compound?
**A.** > 100 µM (inactive)

**Q.** And the GI50 (KM12)?
**A.** > 100 µM (inactive)

**Q.** What about the GI50 (DU-145) of the same compound?
**A.** > 100 µM (inactive)

**Q.** And the GI50 (MDA-MB-231)?
**A.** 40.4 µM (inactive)

**Q.** What about the GI50 (CCRF-CEM) of the same compound?
**A.** > 100 µM (inactive)

**Q.** What about the GI50 (T47D) of the same compound?
**A.** > 100 µM (inactive)

**Q.** What about the GI50 (Hs-578T) of the same compound?
**A.** > 100 µM (inactive)

**Q.** What about the GI50 (SN12C) of the same compound?
**A.** > 100 µM (inactive)

**Q.** What about the GI50 (HL-60) of the same compound?
**A.** > 100 µM (inactive)

**Q.** What about the GI50 (MDA-MB-435) of the same compound?
**A.** > 100 µM (inactive)

**Q.** And the GI50 (SNB-75)?
**A.** 21.5 µM (inactive)

**Q.** What about the GI50 (HCT-116) of the same compound?
**A.** 72.3 µM (inactive)

**Q.** And the GI50 (HCC 2998)?
**A.** > 100 µM (inactive)

**Q.** And the GI50 (LOX IMVI)?
**A.** > 100 µM (inactive)

**Q.** And the GI50 (NCI-H522)?
**A.** > 100 µM (inactive)

**Q.** What about the GI50 (BT-549) of the same compound?
**A.** > 100 µM (inactive)

**Q.** And the GI50 (SF-268)?
**A.** > 100 µM (inactive)

**Q.** What about the GI50 (NCI-H23) of the same compound?
**A.** > 100 µM (inactive)

**Q.** And the GI50 (PC-3)?
**A.** > 100 µM (inactive)

**Q.** And the GI50 (HCT-15)?
**A.** > 100 µM

**Q.** And the GI50 (CAKI-1)?
**A.** > 100 µM (inactive)

**Q.** What about the GI50 (IGROV-1) of the same compound?
**A.** > 100 µM (inactive)

**Q.** And the GI50 (HOP-62)?
**A.** 63 µM (inactive)

**Q.** What about the GI50 (SW-620) of the same compound?
**A.** > 100 µM (inactive)

**Q.** And the GI50 (MCF7)?
**A.** > 100 µM (inactive)

**Q.** And the GI50 (TK-10)?
**A.** > 100 µM (inactive)

**Q.** And the GI50 (UO-31)?
**A.** > 100 µM (inactive)

**Q.** What about the GI50 (786-0) of the same compound?
**A.** 37.2 µM (inactive)

**Q.** What about the GI50 (NCI-H460) of the same compound?
**A.** > 100 µM (inactive)

**Q.** And the GI50 (SNB-19)?
**A.** 85.5 µM (inactive)

**Q.** And the GI50 (OVCAR-4)?
**A.** > 100 µM (inactive)

**Q.** What about the GI50 (SR) of the same compound?
**A.** > 100 µM (inactive)

**Q.** What about the GI50 (MOLT-4) of the same compound?
**A.** > 100 µM (inactive)

**Q.** And the GI50 (MDA-N)?
**A.** > 100 µM (inactive)

**Q.** And the GI50 (OVCAR-3)?
**A.** > 100 µM (inactive)

**Q.** What about the GI50 (A549) of the same compound?
**A.** > 100 µM (inactive)

**Q.** And the GI50 (RPMI-8226)?
**A.** > 100 µM (inactive)

**Q.** What does the source list for `Cc1c2ccccc2c(C)n2c1nc1cc(Cl)c(Cl)cc12`?
**A.** GI50 (U-251): > 10 µM (inactive); GI50 (OVCAR-8): > 10 µM (inactive); GI50 (OVCAR-5): > 10 µM (inactive); GI50 (EKVX): > 10 µM (inactive); GI50 (ACHN): > 10 µM (inactive); GI50 (SF-539): > 10 µM (inactive); GI50 (COLO 205): > 10 µM (inactive); GI50 (M14): > 10 µM (inactive); GI50 (SK-MEL-2): > 10 µM (inactive); GI50 (UACC-62): > 10 µM (inactive); GI50 (NCI/ADR-RES): 0.172 µM (active); GI50 (SK-MEL-28): > 10 µM (inactive); GI50 (SK-MEL-5): > 10 µM (inactive); GI50 (SF-295): 8.65 µM (inactive); GI50 (HT-29): > 10 µM (inactive); GI50 (UACC-257): > 10 µM (inactive); GI50 (KM12): > 10 µM (inactive); GI50 (DU-145): > 10 µM (inactive); GI50 (MDA-MB-231): > 10 µM (inactive); GI50 (CCRF-CEM): > 10 µM (inactive); GI50 (T47D): > 10 µM (inactive); GI50 (Hs-578T): > 10 µM (inactive); GI50 (SN12C): > 10 µM (inactive); GI50 (HL-60): 3.88 µM (inactive); GI50 (MDA-MB-435): > 10 µM (inactive); GI50 (SNB-75): 3.8 µM (inactive); GI50 (HCT-116): > 10 µM (inactive); GI50 (HCC 2998): > 10 µM (inactive); GI50 (Malme-3M): 0.166 µM (active); GI50 (LOX IMVI): 2.78 µM (inactive); GI50 (NCI-H522): 5.81 µM (inactive); GI50 (BT-549): > 10 µM (inactive); GI50 (NCI-H226): 0.0296 µM (active); GI50 (SF-268): > 10 µM (inactive); GI50 (NCI-H23): > 10 µM (inactive); GI50 (PC-3): > 10 µM (inactive); GI50 (HCT-15): > 10 µM; GI50 (CAKI-1): > 10 µM (inactive); GI50 (IGROV-1): > 10 µM (inactive); GI50 (HOP-62): > 10 µM (inactive); GI50 (SW-620): > 10 µM (inactive); GI50 (MCF7): 1.59 µM (inactive); GI50 (TK-10): > 10 µM (inactive); GI50 (786-0): 6.47 µM (inactive); GI50 (NCI-H460): 4.04 µM (inactive); GI50 (SNB-19): > 10 µM (inactive); GI50 (OVCAR-4): > 10 µM (inactive); GI50 (RXF 393): > 10 µM (inactive); GI50 (SR): > 10 µM (inactive); GI50 (MOLT-4): 2.93 µM (inactive); GI50 (K562): > 10 µM (inactive); GI50 (SK-OV-3): > 10 µM (inactive); GI50 (MDA-N): > 10 µM (inactive); GI50 (OVCAR-3): 0.163 µM (active); GI50 (A549): > 10 µM (inactive); GI50 (RPMI-8226): 8.83 µM (inactive)

From ChEMBL document CHEMBL1201862, “PubChem BioAssay data set” (2004)
